Patent publication US12173039B1, “TPL2 inhibiting agents, uses thereof, and detection of TPL2” (Washington University, priority 2021, dated 2024)
“Also recorded” adds a separate entry of the source. Blank lines part the entries; values can stand above or below the compound they belong to.

Key:
IL1B = assay: qRT-PCR of IL1B in HEK T/tH KRAS^G12V cells; assay type: cell-based, human; conditions: 16 hours
Protocol: Total RNA was isolated using RNAzol RT (Sigma), cDNA was generated using High Capacity cDNA reverse transcription kit (Thermo Fisher Scientific, 4368814) and qPCR was performed using SYBR-Green reagent (Applied Biosystems, cat #4309155). All experiments were performed in biological duplicates or triplicates (n=2,3).

[1] = system: TLR9 and p-IRAK4 interaction; assay: Proximity ligation assay (PLA); assay type: cell-based, human; conditions: 3 PDAC lines; 10 μM, 16 hours
Protocol: PLA was performed using Duolink® in situ Red Starter Kit Mouse/Rabbit (DUO92101, Sigma) per manufacturer's protocol. Briefly, cells were seeded on cover slips in 6 well plate at ˜50% confluency per well. Next day cells were treated with SN-38 (10 μM) and 16 hours later PLA was performed using p-IRAK4 (ABNOVA) and TLR9 (CST) primary antibodies. Stained cells were imaged using Nikon C2+ fluorescent microscope paired with NIS-Element software. Number of puncta per field was quantitated for six 400× fields per condition using Find Maxima tool in ImageJ software. Data was exported and graphed in GraphPad Prism v8.

p-MEK, p-ERK, and p-RSK = assay: Immunoblots of MAPK pathway markers in human cell lines; assay type: cell-based; conditions: for p-MEK and p-ERK levels: serum-free
Protocol: (§1) Standard immunoblotting procedure was followed. Cells were washed twice with ice-cold 1×PBS and lysed with ice-cold triton-X lysis buffer (25 mM Tris, pH 7.4, 150 mM NaCl, 5 mM EDTA, 1% Triton-X) containing 1× protease (10 μg mL-1 leupeptin, 700 ng mL-1 pepstatin, 170 ng mL-1 aprotinin, 1 mM PMSF) and phosphatase (10 mM NaF, 1 mM Na3VO4, 1 mM Na4P2O^7, 5 mM Na b-glycerophosphate) inhibitors. Lysates were quantified by Bradford assay (Thermo Scientific), normalized for concentration, and reduced and denatured with 6×SDS sample buffer followed by boiling for 5 minutes. 20-40 μg of protein per sample was resolved by SDS-PAGE, blotted on PVDF membrane and probed with primary antibodies (Cell Signaling Technologies: p-ERK1/2 (#4370), p-MEK1/2 (#9154), ERK1/2 (#4695), MEK1/2 (#8727), p-p105 (#4806), NFS2KB1 p105/p50 (#3035), p-IRAK4 (#11927), IRAK4 (#4363), ubiquitin (#43124), anti-HA (#3724), p-p90RSK (#11989), RSK1/2/3 (#9355), p-TPL2 (#4491), PARP (#9532), p-B-RAF S445 (#2696), BRAF (#9433S). Santa Cruz Biotechnology: GAPDH (#sc-32233), p-p65 S536 (#sc101752). Thermo Fisher Scientific: p-55 TPL2 (#PA5-36635). EMD Millipore: IRAK4 (#07-418). R&D systems: TPL2/MAP3K8 (#MAB4586). Novus Biologicals: anti-AU1 (#NB600-453). Abcam: p-p65 S276 (#ab194726)). Membranes were incubated with appropriate HRP-conjugated secondary antibodies (anti-mouse or anti-rabbit, (1:5000 dilution), Jackson Laboratory) and imaged using chemiluminescent substrate. Additional steps for immunoprecipitation include incubation of soluble fraction lysate with anti-HA magnetic beads (Thermo Scientific cat #88837) overnight at 4° C., washing, and elution using 1×SDS sample buffer and boiling as mentioned in manufacturer's protocol.

p-p105, p-p65 = assay: Immunoblots of NF-κB markers in PDAC cells; assay type: cell-based, human
Protocol: as §1

[2] = system: serum-response element (SRE); assay: Serum-response element (SRE) luciferase reporter assay; assay type: cell-based, human; conditions: for SRE reporter activity (MAPK cascades): KRAS-mutant HPAC, MIA Paca-2, and Pa01C cells
Protocol: (§2) Cells stably expressing plasmid encoding serum-response-element (SRE) or NFKB promoter driven Firefly luciferase and constitutive Renilla luciferase were seeded at equal density per well and treatment was initiated the next day for 16-24 duration. Alternatively, 293T reporter cells were transfected in duplicate or triplicate with 1 μg of appropriate plasmid DNA. Medium was replaced 16-18 hours later and at 48 hours post-transfection reporter activity was measured using Dual-Glo® Luciferase Assay System. Data was acquired using SpectraMax i3Microplate Reader and analysis was performed by calculating ratio of firefly:renilla. Values were normalized to control and graphed using GraphPad Prism v7/8 software.

[3] = system: poly (ADP-ribose) polymerase (PARP); assay: Immunoblot of PARP cleavage; assay type: cell-based, human; conditions: PDAC lines; cotreatment with SN-38, 16 hours
Protocol: as §1, with “Membranes were incubated with appropriate HRP-conjugated secondary antibodies (anti-mouse or anti-rabbit, (1:5000 dilution), Jackson Laboratory) and imaged using chemiluminescent substrate. Additional steps for immunoprecipitation include incubation of soluble fraction lysate with anti-HA magnetic beads (Thermo Scientific cat #88837) overnight at 4° C., washing, and elution using 1×SDS sample buffer and boiling as mentioned in manufacturer's protocol.” left out

NF-κB reporter activity = assay: NF-κB luciferase reporter assay; assay type: cell-based, human; conditions: KRAS-mutant PDAC cells (PANC-1); serial dilutions from 20 μM; 18 hours
Protocol: as §2

orthotopic KI tumors = assay: Orthotopic implantation of murine KI PDAC cells; assay type: in vivo; conditions: KI tumors in syngeneic FVB/NJ mice; 30 mg/kg, 14 days
Protocol: For subcutaneous xenograft, approximately 5 million cells per flank were implanted into 6-week-old athymic nude mice (NU/J, Jackson Laboratory). When applicable, treatment with drug compound was initiated when tumors were palpable. FIRINOX (25 mg/kg 5-FU, 17.5 mg/kg irinotecan, and 3.35 mg/kg oxaliplatin) was administered via intraperitoneal injection weekly in 50 μL PBS. TPL2i was administered by intraperitoneal injection at 10 mg/kg in 40 μL DMSO, 5 days per week. Mice in the control group were treated with vehicle. Tumor volume was calculated as width^2×(length×0.5). Tumors were measured and mice were weighed 3 days per week. For orthotopic implantation, murine KI PDAC cells were injected into the pancreas of 7-week-old female FVB/NJ mice (Jackson Laboratory), as previously described (see e.g., Kim et al. (2009) Nat Protoc. 4 (11): 1670-1680). Six days after implantation, treatment with vehicle, FIRINOX (same dose as above), or TPL2i (30 mg/kg) was initiated for 14 days, at which time all mice were sacrificed. In vivo tumor progression was monitored using ultrasound (VScan, GE Healthcare) with final day representative tumor images shown.

[4] = system: HPNE-KRAS^G12D cells, HEKT/tH-KRAS^G12V cells, conventional PDAC lines, and PDCLs; assay: Anchorage independent soft agar growth assay, human KRAS-mutant lines; assay type: cell-based; conditions: HPNE-KRAS^G12D, HEKT/tH-KRAS^G12V, conventional PDAC lines, PDCLs
Protocol: Cells were seeded at 5000-15000 cells in 0.3% noble agar-DMEM suspension per well, in triplicate, in 24 well plate. For drug treatment, compound was added to cell suspension at 1× concentration. Seeded cells were fed with fresh 0.6% agar-DMEM mix once every 7-12 days. […] After 3-6 weeks, colonies were counted under microscope and imaged. Colony count was normalized to control and graphed in GraphPad Prism v7/8.

IGROV1 cells [5] = assay: Clonogenic 2D assay, IGROV1; assay type: cell-based, human
Protocol: (§3) Cells were seeded at 500-1000 cells per well (6 well plate format) or 200-1000 cells per well (12 well format) in 10% serum media. For drug treatment, compound was added at time of seeding at indicated concentration. Media was replenished as needed over course of incubation. After 3-5 weeks, colonies were fixed with 4% formaldehyde, stained with 0.5% crystal violet and scanned using document scanner. Images were quantified using particle analyzer on ImageJ software and values were normalized to vehicle.

[6] = system: LPS-induced TNF-α production; conditions: human monocytes; cited from earlier work
IGROV1 cells [7] = assay: Cell proliferation assay, IGROV1; assay type: cell-based, human
Protocol: (§4) Cells were seeded in triplicate or quadruplicate at indicated density per well. When applicable, appropriate drug compound was added to cells the next day. Viable cells were counted using trypan blue dye exclusion and BioRad TC20 Automated Cell Counter at each time point.

Hs695T cells [8] = assay: Drug response and viability assay, Hs695T; assay type: cell-based, human
Protocol: Cells were seeded at 1500-2500 cells per well in triplicates, in 96 well format. Next day, appropriate inhibitor was added in serial dilution from 1.00×102 μM or indicated single doses. Vehicle (DMSO) was added to match volume of inhibitor used for highest concentration. After 96-120 hours, 5× AlamarBlue® reagent (resazurin sodium salt, Sigma) was added to wells and incubated for 2-4 hours. Fluorescence at 585 nm (excitation 555 nm) was measured by SpectraMax i3 Microplate Reader. Raw values were normalized to vehicle, analyzed and graphed using GraphPad Prism v7/8 software.

Hs695T cells [9] = assay: Cell proliferation assay, Hs695T; assay type: cell-based, human
Protocol: as §4

KRAS mutant cell lines = assay: Clonogenic 2D assay, KRAS-mutant and PDAC lines; assay type: cell-based, human; conditions: HPNE-KRAS^G12D, HEKT/tH-KRAS^G12V, conventional PDAC lines, PDCLs
Protocol: as §3

[10] = patients with refractory hematologic malignancies; cited from earlier work
[11] = HPAC cells, 16 hours, 10% serum

Compound: CC(C)Nc1cc(-c2c[nH]c(C(=O)N[C@H](CO)c3cccc(Cl)c3)c2)c(Cl)cn1 [ulixertinib]
- IL-1B production (IL1B expression by qRT-PCR) (IL1B): significantly abrogated

Compound: CS(=O)(=O)N1CCN(Cc2cc3nc(-c4cccc5[nH]ncc45)nc(N4CCOCC4)c3s2)CC1 [GDC-0941]
- IL-1B production (IL1B expression by qRT-PCR) (IL1B): no effect

Compound: CCc1c2c(nc3ccc(O)cc13)-c1cc3c(c(=O)n1C2)COC(=O)[C@]3(O)CC [SN-38]
- TLR9 and p-IRAK4 interaction [1]: markedly increased
- induction of p-ERK, p-MEK, p-RSK, p-TPL2 and p-IRAK4 (p-MEK, p-ERK, and p-RSK; multiple PDAC lines, 10 μM, 16 hours, compared with 4 other chemotherapeutic agents): most potent in inducing
- NF-κB induction (p-p105) (p-p105, p-p65; PDAC lines after chemotherapy): also induced

- SRE reporter activity (MAPK cascades) [2]: paradoxically hyperactivate
Compound: CC(C)(C)c1nc(-c2cccc(NS(=O)(=O)c3c(F)cccc3F)c2F)c(-c2ccnc(N)n2)s1 [dabrafenib]

- PARP cleavage [3]: increased
- NF-κB reporter activity (NF-κB reporter activity): dose-dependently suppressed
- Gemcitabine-induced SRE activity [2, 11]: suppressible
- SRE reporter activity (MAPK cascades) [2]: dose-dependently suppressed
Compound: N#Cc1cnc2cnc(NCc3cccnc3)cc2c1Nc1ccc(F)c(Cl)c1 [TPL2i, 4-[(3-Chloro-4-fluorophenyl)amino]-6-[(3-pyridinylmethyl)amino]-1,7-naphthyridine-3-carbonitrile]
- growth of orthotopic tumors (orthotopic KI tumors): effective in significantly suppressing growth
- 3-dimensional (3D) AI growth [4]: dose-dependently suppressed
- colony forming ability (IGROV1 cells [5]): significantly decreased
- LPS-induced TNF-α production [6]: can suppress
- proliferation (IGROV1 cells [7]): significantly decreased
- viability (Hs695T cells [8]): suppressed
- in vitro proliferation (Hs695T cells [9]): significantly suppressed
- 2D clonogenic growth (KRAS mutant cell lines): dose-dependently suppressed
- p-MEK and p-ERK levels (p-MEK, p-ERK, and p-RSK; 293T cells expressing KRAS^G12V, 24 hours): dose-dependently suppressed
- p-MEK and p-ERK (p-MEK, p-ERK, and p-RSK; 293T cells transfected with oncogenic BRAF^V600E, 24 hours): neither TPL2i nor IRAK4i suppressed
- p-MEK and p-ERK / MAPK activity (p-MEK, p-ERK, and p-RSK; BxPc-3 PDAC line (BRAF mutation, WT KRAS)): neither TPL2i nor IRAK4i suppressed and not
- conditioned medium-induced p-TPL2, p-IRAK4, p-MEK, and p-ERK levels (p-MEK, p-ERK, and p-RSK; HEK T/tH cells with CM from HEK-T/tH KRAS^G12V cells): completely blocked
- Gemcitabine-induced p-MEK and p-ERK levels (p-MEK, p-ERK, and p-RSK; [11]): suppressible
- p-ERK and p-MEK / MAPK activity (p-MEK, p-ERK, and p-RSK; Hs695T cells (BRAF^V600E, MAP3K8^E188K), 24 hours, 10% serum): significantly suppressed
- p-MEK, p-ERK, and p-RSK / MAPK activity (p-MEK, p-ERK, and p-RSK; IGROV1 (MAP3K8^R442H), 1 μM, 2 hours): completely blocked; also recorded: completely abolished
- SN-38-induced p-MEK, p-ERK, and p-RSK (p-MEK, p-ERK, and p-RSK; PDAC lines, cotreatment, 16 hours): significantly attenuated
- p-BRAF (p-MEK, p-ERK, and p-RSK; Pa01C cells, incremental doses): without affecting
- p-MEK and p-ERK (p-MEK, p-ERK, and p-RSK; Pa01C cells, incremental doses): dose-dependently blocked
- p-MEK and p-ERK levels (p-MEK, p-ERK, and p-RSK; multiple KRAS-mutant PDAC lines, 36 hours): dose-dependently suppressed
- p-p65 at S276 (p-p105, p-p65; 3 out of 4 cell lines): potently suppressed
- p50 processing (p-p105, p-p65; PDAC cell lines): did not lead to increased p50 processing
- p-p65 at S536 (p-p105, p-p65; PDAC cell lines): not
- p-p105 (p-p105, p-p65; PDAC cell lines, TPL2 inhibition): dose-dependently suppressed
- p-p105 in SN-38-treated cells (p-p105, p-p65; Pa01C cells): additionally suppressed

Compound: O=C(Nc1cc(C(F)(F)F)cc(C(F)(F)F)c1)c1cc(Cl)ccc1O [IMD-0354]
- SRE-driven luciferase reporter activity ([2]; HPAC cells): dose-dependent suppression

- SRE reporter activity (MAPK cascades) [2]: paradoxically hyperactivate
Compound: CCCS(=O)(=O)Nc1ccc(F)c(C(=O)c2c[nH]c3ncc(Cl)cc23)c1F [PLX-4720]

Compound: Cc1cc(-c2nc(C(=O)Nc3cc4oc(N5CCOCC5)nc4nc3N3CC[C@@H](O)C3)co2)ccn1 [CA-4948, N-[5-[(3R)-3-hydroxypyrrolidin-1-yl]-2-morpholin-4-yl-[1,3]oxazolo[4,5-b]pyridin-6-yl]-2-(2-methylpyridin-4-yl)-1,3-oxazole-4-carboxamide]
- patients developing grade 1-2 neutropenia [10]: 23%
- tolerability in clinical trial [10]: rather well tolerated

Compound: CCCS(=O)(=O)Nc1ccc(F)c(C(=O)c2c[nH]c3ncc(-c4ccc(Cl)cc4)cc23)c1F [PLX4032]
- viability (Hs695T cells [8]): modest growth suppressive effect

Compound: recombinant hIL-1B: recombinant human IL-1B
- p-IRAK4, p-TPL2, p-MEK, p-ERK, and p-RSK (p-MEK, p-ERK, and p-RSK; HEK T/H, HPAC, and Pa01C cells, 100 ng/ml): upregulated
